Target: T1, CYP2C9 (Homo sapiens, UniProt P11712)
T1 construct: human liver microsomes
Experiment: inhibition of S-warfarin 7-hydroxylation (CYP2C9 marker) in human liver microsomes, HPLC-FLD
Format: biochemical

T1 sequence (P11712 whole entry): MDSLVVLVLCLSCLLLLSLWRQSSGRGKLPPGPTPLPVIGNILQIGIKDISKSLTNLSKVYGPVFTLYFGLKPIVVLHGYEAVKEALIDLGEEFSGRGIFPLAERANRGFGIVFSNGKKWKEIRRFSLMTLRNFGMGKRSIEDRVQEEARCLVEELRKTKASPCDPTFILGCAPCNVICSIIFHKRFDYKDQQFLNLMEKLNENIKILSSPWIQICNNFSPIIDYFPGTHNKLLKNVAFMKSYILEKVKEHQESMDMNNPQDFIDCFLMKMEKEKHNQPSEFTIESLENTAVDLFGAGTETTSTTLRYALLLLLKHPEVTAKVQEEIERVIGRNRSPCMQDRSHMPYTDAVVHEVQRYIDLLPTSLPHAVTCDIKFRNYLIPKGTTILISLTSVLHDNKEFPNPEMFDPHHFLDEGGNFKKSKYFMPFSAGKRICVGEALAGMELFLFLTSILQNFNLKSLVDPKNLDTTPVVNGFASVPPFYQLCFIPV

O=C(/C=C/C=C/c1ccc2c(c1)OCO2)N1CCCCC1 [piperine]
IC50: 14.2 ± 1.1 µM

Reference: PMC11130653, “Development of a rapid HPLC-fluorescence method for monitoring warfarin metabolites formation: In vitro studies for evaluating the effect of piperine on warfarin metabolism and plasma coagulation” (Heliyon, 2024)
